# Experimental data published in patent publication US20050124554A1, “Spermidine derivatives for the treatment of chronic neurodegenerative diseases” (priority 2002, published 2005).
# Columns and labels:
# [1] = tested on: organotypic hippocampal slice cultures (CA1 pyramidal cell layer); assay: Free-radical mediated injury (duroquinone), cell death by PI fluorescence; format: cell-based, Wistar rat; settings: 100 μM duroquinone 3 h; 300 μM compound
# Procedure: Organotypic hippocampal slice cultures were prepared according to established methods (Pringle et al. (1997), Brain Res., 755, 36-46). In brief, Wistar rat pups (8-11 days old) were decapitated and the hippocampus rapidly dissected into ice-cold Gey's balanced salt solution (Gibco Life Technologies, Paisley, UK) supplemented with 4.5 mg ml^−1 glucose. Slices were separated and plated onto Millicell CM culture inserts (4 per well) and maintained at 37° C. and 5% CO2 for 14 days. […]
# Free-radical mediated injury was performed as described previously with L-Arg3,4 present pre-, during, and post-injury in treated cultures (Wilde et al. (1997, J. Neurochem., 69, 883-886). Briefly, cultures were transferred to SFM+PI with or without 300 μM L-Arg3,4 and allowed to equilibrate for 30 min prior to imaging. Any cultures in which PI fluorescence was detected at this stage were excluded from further study. Duroquinone (DQ) was dissolved in DMSO at a stock concentration of 100 mM which was then diluted 1:1000 in SFM for a final working concentration of 100 μM (final DMSO concentration of 0.1%). […]
# Neuronal damage was assessed as described previously (Pringle et al. (1996), Stroke, 27, 2124-2130; Pringle et al. (1997), Brain Res., 755, 36-46). Light transmission images were captured prior to the induction of injury, and PI fluorescence images recorded at the end of the 24 h post-injury recovery period. […]
# [2] = tested on: organotypic hippocampal slice cultures (CA1 or CA3 pyramidal cell layer); assay: Excitotoxic injury by glutamate receptor agonists, cell death by PI fluorescence; format: cell-based, Wistar rat; settings: for protection: 300 μM
# Procedure: Organotypic hippocampal slice cultures were prepared according to established methods (Pringle et al. (1997), Brain Res., 755, 36-46). In brief, Wistar rat pups (8-11 days old) were decapitated and the hippocampus rapidly dissected into ice-cold Gey's balanced salt solution (Gibco Life Technologies, Paisley, UK) supplemented with 4.5 mg ml^−1 glucose. Slices were separated and plated onto Millicell CM culture inserts (4 per well) and maintained at 37° C. and 5% CO2 for 14 days. Maintenance medium consisted of 25% heat-inactivated horse serum, 25% Hank's balanced salt solution (HBSS) and 50% minimum essential medium with added Earle's salts MM, ICN Biomedicals, Basingstoke, UK) supplemented with 1 mM glutamine and 4.5 mg ml^−1 glucose. Medium was changed every 3-4 days.
# Excitotoxic injury was performed as previously described (Pringle et al. (1997), Brain Res., 755, 36-46) with L-Arg3,4 present pre-, during, and post-injury fin treated cultures. Cultures were transferred to SFM+PI with or without 300 μM L-Arg3,4 and allowed to equilibrate for 30 min prior to imaging. […] The medium was then exchanged for SFM+PI plus a glutamate receptor agonist (either 10 mM glutamate, 10 μM NMDA, 10 μM AMPA, or 10 μM kainate) for 3 h. After exposure, the media was again exchanged for SFM+PI containing 300 μM L-Arg3,4. Cultures were then returned to the incubator until they were assessed for cell death in the indicated region of the pyramidal cell layer 24 h post exposure.
# Neuronal damage was assessed as described previously (Pringle et al. (1996), Stroke, 27, 2124-2130; Pringle et al. (1997), Brain Res., 755, 36-46). Light transmission images were captured prior to the induction of injury, and PI fluorescence images recorded at the end of the 24 h post-injury recovery period. All images were captured on an inverted Leica DM-IRBE epifluorescence microscope (Milton Keynes, UK) fitted with a 100 W Hg lamp and standard rhodamine optics (excitation 510-560 nm; dichroic mirror […]; emission>590 nm). Images were acquired with a 5×NA 0.12 lens and a cooled Hamamatsu digital camera and digitised at 12 bit resolution for analysis in OpenLab 2.1 (Improvision, Coventry, UK) running on a Macintosh G4/400. The area of the CA1 or CA3 cell layer was determined from the transmission image, and the area of PI fluorescence in that cell layers was measured using the density slice function within OpenLab. Neuronal damage was expressed as a percentage of the area in which PI fluorescence was detected above threshold within a cell layer divided by the total area of that cell layer. Protection was calculated as the difference between the damage for a given well and the average damage in untreated controls divided by the average damage in untreated controls. Groups were compared against corresponding control groups using the two tailed Student's t-test with significance indicated as * for P<0.05, and ** for P<0.01. Data is presented as mean±s.e.mean.
# [3] = tested on: superoxide production in organotypic slice cultures (CA1 pyramidal cell layer); assay: Superoxide production monitored fluorescently with hydroethidine (HEt); format: cell-based, Wistar rat
# Procedure: Hydroethidine (HEt) has been utilised to fluorescently monitor the production of superoxide in primary neuronal cultures [Bindokas et al., (1996), Carriedo et al. (1998)]. A stock solution of HEt was made was made in N2 sparged DMSO (10 mg ml^−1) which was then aliquoted and stored at −80° C. aliquots were used only once before being discarded. Two separate experimental paradigms were employed to test the effect of L-Arg3,4 on superoxide production in response to either AMPA or NMDA stimulation.
# For the AMA experiments, organotypic slice cultures were loaded with 1 μg ml^−1 HEt in HEPES buffered salt solution (HSS) (in mM): glucose 10, NaCl 144, KCl 5, HEPES 10, MgCl2 1, CaCl2 2, pH 7.4, for 30 minutes in the dark. All subsequent solutions contained HEt to prevent a decrease in signal due to reporter depletion. Images were acquired once per minute for the duration of the experiment on the same system as described above for assessment of cell death. A 10 minute record of baseline superoxide production was produced before the bathing solution was exchanged for HBSS+BEt containing 10 μM AMPA, again for 10 minutes. As shown previously, stimulation of glutamate receptors with AMPA lead to an increase in superoxide production [Bindokas et al., (1996), Carriedo et al. (1998)]. The bathing solution was then exchanged for HBSS+HEt containing both 10 μM AMPA and 300 μM L-Arg3,4 for 10 minutes to test the effect of L-Arg3,4 on superoxide production. In separate control experiments, 300 μM L-Arg3,4 in HSS was incubated with slices to determine if it affected baseline superoxide production on its own.
# Acquired images from the AMPA experiments were then analysed with the OpenLab image analysis package. A region of interest was drawn around the CA1 pyramidal cell layer because this was the cell layer that produced the largest increase in fluorescence in response to AMPA activation. In each image, within the region of interest, the average pixel value was calculated in arbitrary units (AU) to produce a record of fluorescence intensity values over time. A linear regression was then performed on the data to calculate the rate of superoxide production as change in intensity over time (arbitrary units per minute, AU min^−1) for each of the treatments. Data is presented as mean±s.d. Rates of superoxide production were then compared by ANOVA followed by post-hoc comparisons with Bonferroni corrections with significance indicated as * for P<0.05 and ** for P<0.01.
# [4] = previous studies, WO99/31049; cited from earlier work
smiles,measurement,setting,value
"N=C(N)NCCCC(N)C(=O)NCCCNCCCCN [L-Arg3,4, L-arginyl-3,4-spermidine]",injury (cell death in CA1),[1],21±5%
same,protection,[1],46%
same,cell death (damage) in CA1,"[2]; 10 μM AMPA 3 h, 300 μM compound",19±4%
same,protection,"[2]; 10 μM AMPA, CA1",53%
same,cell death (damage) in CA1,"[2]; 10 μM NMDA 3 h, 300 μM compound",16±2%
same,protection,"[2]; 10 μM NMDA, CA1",38%
same,cell death (damage) in CA3,"[2]; 10 μM kainate 3 h, 300 μM compound",11±4%
same,protection,"[2]; 10 μM kainate, CA3",61%
same,cell death (damage) in CA1,"[2]; 10 mM Glut 3 h, 300 μM compound pre-, during, post-injury",13±3%
same,protection,"[2]; 10 mM Glut, CA1",41%
same,rate of baseline superoxide production,"[3]; 300 μM compound alone, no AMPA",2.55±2.02 AU min^−1
same,rate of superoxide production,[3]; 300 μM compound in continued presence of 10 μM AMPA,5.07±1.94 AU min-d
same,"effect on blood pressure, heart rate, respiration, motor function",[4],"did not affect blood pressure, heart rate or respiration, or result in adverse motor function"
